Assay results: ChEMBL document CHEMBL5576124, “Discovery of an Exceptionally Orally Bioavailable and Potent HPK1 PROTAC with Enhancement of Antitumor Efficacy of Anti-PD-L1 Therapy” (J Med Chem, 2024)
Active and inactive are the calls of the source. No cut-off for these calls is given here.

Experiments:
[1] = Half life in Sprague-Dawley rat at 10 mg/kg,po measured upto 24 hrs by LC-MS analysis; type: ADME, organism-based; conditions: in vivo
[2] = Tmax in Sprague-Dawley rat at 10 mg/kg,po measured upto 24 hrs by LC-MS analysis; type: ADME, organism-based; conditions: in vivo
[3] = Cmax in Sprague-Dawley rat at 10 mg/kg,po measured upto 24 hrs by LC-MS analysis; type: ADME, organism-based; conditions: in vivo
[4] = AUC (0 to t) in Sprague-Dawley rat at 10 mg/kg,po measured upto 24 hrs by LC-MS analysis; type: ADME, organism-based; conditions: in vivo
[5] = MRT in Sprague-Dawley rat at 10 mg/kg,po measured upto 24 hrs by LC-MS analysis; type: ADME, organism-based; conditions: in vivo
[6] = Stability in human liver microsomes assessed as parent compound remaining; type: ADME, Microsome
[7] = Stability in human liver microsomes assessed as parent compound remaining measured after 5 mins; type: ADME, Microsome; conditions: read-out: Stability
[8] = Stability in human liver microsomes assessed as parent compound remaining measured after 15 mins; type: ADME, Microsome; conditions: read-out: Stability
[9] = Stability in human liver microsomes assessed as parent compound remaining measured after 30 mins; type: ADME, Microsome; conditions: read-out: Stability
[10] = Stability in human liver microsomes assessed as parent compound remaining measured after 60 mins; type: ADME, Microsome; conditions: read-out: Stability
[11] = Stability in mouse liver microsomes assessed as parent compound remaining; type: ADME, Microsome
[12] = Stability in mouse liver microsomes assessed as parent compound remaining measured after 15 mins; type: ADME, Microsome; conditions: read-out: Stability
[13] = Stability in mouse liver microsomes assessed as parent compound remaining measured after 30 mins; type: ADME, Microsome; conditions: read-out: Stability
[14] = Stability in mouse liver microsomes assessed as parent compound remaining measured after 60 mins; type: ADME, Microsome; conditions: read-out: Stability
[15] = Metabolic stability in human liver microsomes assessed as half life; type: ADME, Microsome
[16] = Metabolic stability in human liver microsomes assessed as intrinsic clearance; type: ADME, Microsome; conditions: read-out: CLH
[17] = Metabolic stability in human liver microsomes assessed as microsomal intrinsic clearance; type: ADME, Microsome; conditions: read-out: CLH
[18] = Metabolic stability in human liver microsomes assessed as hepatic extraction ratio; type: ADME, Microsome; conditions: read-out: ERH
[19] = Metabolic stability in mouse liver microsomes assessed as half life; type: ADME, Microsome
[20] = Metabolic stability in mouse liver microsomes assessed as intrinsic clearance; type: ADME, Microsome; conditions: read-out: CLH
[21] = Metabolic stability in mouse liver microsomes assessed as microsomal intrinsic clearance; type: ADME, Microsome; conditions: read-out: CLH
[22] = Metabolic stability in mouse liver microsomes assessed as hepatic extraction ratio; type: ADME, Microsome; conditions: read-out: ERH
[23] = biological target: T1, Protein cereblon/Mitogen-activated protein kinase kinase kinase kinase 1 (Homo sapiens, UniProt Q92918+Q96SW2); assay: PROTAC activity at CRBN/HPK1 in human Jurkat cells assessed as degradation of HPK1 protein at 1 uM preincubated with MLN4924 followed by compound addition incubated for 24 hrs by Western blotting analysis; type: cell-based
T1 sequence (Q92918 whole entry, looked up): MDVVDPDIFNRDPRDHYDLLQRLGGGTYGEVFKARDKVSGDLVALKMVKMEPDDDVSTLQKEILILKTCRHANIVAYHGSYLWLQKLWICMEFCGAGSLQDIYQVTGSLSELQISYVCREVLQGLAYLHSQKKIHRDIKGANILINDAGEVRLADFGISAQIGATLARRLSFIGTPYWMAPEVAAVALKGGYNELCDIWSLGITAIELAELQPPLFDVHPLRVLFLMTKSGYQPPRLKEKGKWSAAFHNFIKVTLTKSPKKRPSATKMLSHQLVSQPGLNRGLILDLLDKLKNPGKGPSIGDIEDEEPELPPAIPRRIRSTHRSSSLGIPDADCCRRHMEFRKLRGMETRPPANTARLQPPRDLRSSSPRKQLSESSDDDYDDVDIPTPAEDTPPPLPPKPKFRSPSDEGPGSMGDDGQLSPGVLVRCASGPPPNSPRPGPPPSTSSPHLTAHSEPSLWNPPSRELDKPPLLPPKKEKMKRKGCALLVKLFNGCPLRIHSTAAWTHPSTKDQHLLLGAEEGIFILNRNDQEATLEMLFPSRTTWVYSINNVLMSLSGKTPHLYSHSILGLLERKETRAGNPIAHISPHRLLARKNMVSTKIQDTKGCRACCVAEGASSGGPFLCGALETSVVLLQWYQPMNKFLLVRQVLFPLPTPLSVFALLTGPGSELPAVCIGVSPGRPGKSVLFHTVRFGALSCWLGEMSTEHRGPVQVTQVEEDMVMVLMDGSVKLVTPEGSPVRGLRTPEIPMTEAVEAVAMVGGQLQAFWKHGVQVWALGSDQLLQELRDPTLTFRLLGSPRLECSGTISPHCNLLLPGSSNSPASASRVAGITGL
T1 sequence (Q96SW2 whole entry, looked up): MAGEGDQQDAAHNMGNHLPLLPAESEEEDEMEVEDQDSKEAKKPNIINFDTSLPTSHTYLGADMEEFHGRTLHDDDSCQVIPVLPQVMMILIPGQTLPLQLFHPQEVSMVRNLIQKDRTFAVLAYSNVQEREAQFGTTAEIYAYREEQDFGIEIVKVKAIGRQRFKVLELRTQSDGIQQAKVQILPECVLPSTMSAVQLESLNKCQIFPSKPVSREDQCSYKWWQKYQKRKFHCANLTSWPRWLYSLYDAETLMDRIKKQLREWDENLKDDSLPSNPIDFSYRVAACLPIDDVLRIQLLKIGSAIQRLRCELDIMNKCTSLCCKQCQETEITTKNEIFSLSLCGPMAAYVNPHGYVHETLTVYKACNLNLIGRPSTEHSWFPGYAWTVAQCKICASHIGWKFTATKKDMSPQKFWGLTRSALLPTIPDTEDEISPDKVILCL

[24] = biological target: T1, Protein cereblon/Mitogen-activated protein kinase kinase kinase kinase 1; assay: PROTAC activity at CRBN/HPK1 in human Jurkat cells assessed as degradation of HPK1 protein at 1 uM preincubated with thalidomide followed by compound addition incubated for 24 hrs by Western blotting analysis; type: cell-based
[25] = biological target: T1, Protein cereblon/Mitogen-activated protein kinase kinase kinase kinase 1; assay: PROTAC activity at CRBN/HPK1 in human Jurkat cells assessed as degradation of HPK1 protein at 1 uM preincubated with 4-(2-(2,5-Dimethyl-1,2,3,4-tetrahydroisoquinolin-7-y1)-5H-pyrrolo[2,3-bipyrazin-7-y1)-N,N,2-trimethylbenzamide followed by compound addition incubated for 24 hrs by Western blotting analysis; type: cell-based
[26] = system: Jurkat; assay: Immunostimulatory activity in anti-CD3/CD28 induced human Jurkat cells assessed as increase in IFN-gamma release incubated for 24 hrs by ELISA; type: functional, cell-based
[27] = system: Jurkat; assay: Immunostimulatory activity in anti-CD3/CD28 induced human Jurkat cells assessed as increase in IFN-gamma at 10 to 10000 nM incubated for 24 hrs in presence of PGE2 and NECA by ELISA; type: functional, cell-based; conditions: dose 10-10000 nM
[28] = system: T-cell line; assay: Immunostimulatory activity in human T cell assessed as increase in IL-2 secretion; type: functional, cell-based
[29] = system: T-cell line; assay: Immunostimulatory activity in human T cell assessed as fold increase in IL-2 secretion; type: functional
[30] = system: T-cell line; assay: Immunostimulatory activity in human T cell assessed as increase in IL-2 secretion at 10 uM relative to control; type: functional
[31] = biological target: Mitogen-activated protein kinase kinase kinase kinase 1 (Homo sapiens, UniProt Q92918); assay: Inhibition of HPK1 (unknown origin)
Mitogen-activated protein kinase kinase kinase kinase 1, sequence (Q92918 whole entry): as the sequence (Q92918 whole entry, looked up) above

[32] = system: Jurkat; assay: Immunostimulatory activity in anti-CD3/CD28 induced human Jurkat cells assessed as downregulation of SLP76 expression by Western blotting analysis; type: functional, cell-based
[33] = system: Jurkat; assay: Immunostimulatory activity in anti-CD3/CD28 induced human Jurkat cells assessed as downregulation of SLP76 phosphorylation by Western blotting analysis; type: functional, cell-based
[34] = system: Jurkat; assay: Immunostimulatory activity in anti-CD3/CD28 induced human Jurkat cells assessed as upregulation of ERK expression by Western blotting analysis; type: functional, cell-based
[35] = system: Jurkat; assay: Immunostimulatory activity in anti-CD3/CD28 induced human Jurkat cells assessed as upregulation of JNK expression by Western blotting analysis; type: functional, cell-based
[36] = system: Jurkat; assay: Immunostimulatory activity in anti-CD3/CD28 induced human Jurkat cells assessed as upregulation of JNK phosphorylation by Western blotting analysis; type: functional, cell-based
[37] = Half life in ICR mouse at 1 mg/kg,iv measured upto 24 hrs by LC-MS analysis; type: ADME, organism-based; conditions: in vivo
[38] = Tmax in ICR mouse at 1 mg/kg,iv measured upto 24 hrs by LC-MS analysis; type: ADME, organism-based; conditions: in vivo
[39] = Cmax in ICR mouse at 1 mg/kg,iv measured upto 24 hrs by LC-MS analysis; type: ADME, organism-based; conditions: in vivo
[40] = AUC (0 to t) in ICR mouse at 1 mg/kg,iv measured upto 24 hrs by LC-MS analysis; type: ADME, organism-based; conditions: in vivo
[41] = Half life in ICR mouse at 10 mg/kg,po measured upto 24 hrs by LC-MS analysis; type: ADME, organism-based; conditions: in vivo
[42] = Tmax in ICR mouse at 10 mg/kg,po measured upto 24 hrs by LC-MS analysis; type: ADME, organism-based; conditions: in vivo
[43] = Cmax in ICR mouse at 10 mg/kg,po measured upto 24 hrs by LC-MS analysis; type: ADME, organism-based; conditions: in vivo
[44] = Bioavailability in ICR mouse at 10 mg/kg,po or 1 mg/kg,iv measured upto 24 hrs by LC-MS analysis; type: ADME, organism-based; conditions: in vivo
[45] = system: CT26; assay: Antitumor activity against mouse CT26 cells implanted BALB/c mouse model assessed as tumor growth inhibition at 25 mg/kg,po administrated once daily for 15 days in presence of anti-PD-L1 antibody relative to control; type: functional; conditions: CT26, 360 h, time 15 day, read-out: TGI
[46] = Toxicity in BALB/c mouse implanted with mouse CT26 cells assessed as change in body weight at 25 mg/kg,po administrated once daily for 15 days; type: organism-based; conditions: in vivo, 360 h, time 15 day
[47] = biological target: T1, Protein cereblon/Mitogen-activated protein kinase kinase kinase kinase 1; assay: PROTAC activity at CRBN/HPK1 in human Jurkat cells assessed as downregulation of PFDN5 expression by Western blotting analysis; type: cell-based
[48] = biological target: T1, Protein cereblon/Mitogen-activated protein kinase kinase kinase kinase 1; assay: PROTAC activity at CRBN/HPK1 in human Jurkat cells assessed as upregulation of PCGF6 expression by Western blotting analysis; type: cell-based
[49] = biological target: T1, Protein cereblon/Mitogen-activated protein kinase kinase kinase kinase 1; assay: PROTAC activity at CRBN/HPK1 in human Jurkat cells assessed as upregulation of GCK expression by Western blotting analysis; type: cell-based

Cc1cc(-c2c[nH]c3ncc(-c4ccc(C5CCN(C6CN(c7ccc8c(c7)C(=O)N(C7CCC(=O)NC7=O)C8=O)C6)CC5)cc4)nc23)ccc1C(=O)N(C)C (centres undefined)
half-life [1]: 6.58 h | Tmax [2]: 1 h | Cmax [3]: 2090 ng/mL | AUC(0-t) at 24 h [4]: 16400 ng·h/mL | MRT [5]: 9.62 h | Stability [6]: 100% | remaining at 5 min [7]: 96.5% | remaining at 0.25 h [8]: 101% | remaining at 0.5 h [9]: 98.3% | remaining at 1 h [10]: 94.5% | Stability [11]: 100% | remaining at 0.25 h [12]: 85.5% | remaining at 0.5 h [13]: 70.3% | remaining at 1 h [14]: 59.4% | half-life [15]: 16.5 h | microsomal CLint [16]: 1.4 µL/min/mg | CLint scaled [17]: 5.54 mL/min/kg | hepatic extraction ratio [18]: 0.058 | half-life [19]: 1.25 h | microsomal CLint [20]: 18.4 µL/min/mg | CLint scaled [21]: 16.6 mL/min/kg | hepatic extraction ratio [22]: 0.444 | Activity [23]: inactive | Activity [24]: Active | Activity [25]: Active | Activity [26]: Dose-Dependent Effect | Activity [27]: inactive | EC50 [28]: 12.9 nM | fold change (FC) [29]: 70 | Activity [30]: 2361.07% | IC50 [31]: 30.9 nM | Activity [32]: Active | Activity [33]: Active | Activity [34]: Active | Activity [35]: Active | Activity [36]: Active | half-life [37]: 3.13 h | Tmax [38]: 4.8 min | Cmax [39]: 3000 ng/mL | AUC(0-t) at 24 h [40]: 16800 ng·h/mL | half-life [41]: 4.33 h | Tmax [42]: 4 h | Cmax [43]: 10900 ng/mL | bioavailability [44]: 81.7% | inhibition in vivo at 25 mg/kg [45]: 65.6% | Activity [46]: Non-Toxic | Activity [47]: Active | Activity [48]: Active | Activity [49]: inactive
